Data reported in US6864217B2, “Herbicidal compositions with substituted phenylsulfonylureas for controlling weeds in rice” (Hoechst Schering AgrEvo GmbH, priority 1998, dated 2005).
Like-named read-outs stand apart in the source and are kept apart here.

Tests used:
Cyperus serotinus [1] = assay: Table 12 greenhouse trial, treatment at the 1-2 leaf stage: weed control; assay type: in vivo; conditions: 20 days after application
Experimental: (§1) Seeds or rhizome pieces of mono- and dicotyledonous weed plants are placed into sandy loam soil in plastic pots, covered with soil and grown in a greenhouse under good growth conditions (temperature, atmospheric humidity, water supply). Weeds which are encountered in the cultivation of rice are cultivated in pots in which the water level is up to 2 cm over the soil surface. Three weeks after sowing, the test plants are treated at the three-leaf stage. The active compound combinations according to the invention, formulated as wettable powders or emulsion concentrates, and, in parallel experiments, the correspondingly formulated individual active compounds are sprayed onto the green parts of the plants at different dosages using an amount of water of 300 to 600 l/ha (converted), and, after about 3 to 4 weeks of the test plants in the greenhouse under optimum growth conditions (temperature, atmospheric humidity, water supply), the effect of the preparations is evaluated visually in comparison to untreated controls. In the case of rice or weeds which are encountered in the cultivation of rice, the active compounds are also added directly to the water for irrigation (application analogous to the so-called granules application) or sprayed onto plants and added to the water for irrigation. The experiments were designed with several, up to five, repetitions. The herbicidal compositions according to the invention also have good herbicidal post-emergence activity against a broad spectrum of economically important weed grasses and broad-leaved weeds.
(§2) Greenhouse trial: Treatment at the 1-2 leaf stage, evaluation 20 days after the application.

Oryza sativa [2] = assay: Table 12 greenhouse trial, treatment at the 1-2 leaf stage: rice damage; assay type: in vivo; conditions: greenhouse trial, 20 days after application
Experimental: as §1, §2

Echinochloa crusgalli [3] = assay: Table 8 greenhouse trial, treatment at the 1-2 leaf stage: weed control; assay type: in vivo; conditions: 22 days after application
Description: as §1, with “Three weeks after sowing, the test plants are treated at the three-leaf stage.” left out

Echinochloa crusgalli [4] = assay: Table 7 field trial, treatment at the 1-2 leaf stage: weed control; assay type: in vivo; conditions: 28 days after application
Experimental: (§8) The examples mentioned below were carried out in the greenhouse, and in some instances, in field trials.

Oryza sativa [5] = assay: Table 7 field trial, treatment at the 1-2 leaf stage: rice damage; assay type: in vivo; conditions: 28 days after application
Experimental: as §8

Oryza sativa [6] = assay: Table 8 greenhouse trial, treatment at the 1-2 leaf stage: rice damage; assay type: in vivo; conditions: 22 days after application
Description: as §1, with “Three weeks after sowing, the test plants are treated at the three-leaf stage.” left out

Marsilea crenata = assay: Table 7 field trial, treatment at the 1-2 leaf stage: weed control; assay type: in vivo; conditions: 28 days after application
Experimental: as §8

Cyperus serotinus [7] = assay: Table 19 field trial, treatment at the 2 leaf stage: weed control; assay type: in vivo; conditions: 14 days after application
Description: (§3) Field trial: Treatment at the 2 leaf stage, evaluation 14 days after the application.

Oryza sativa [8] = assay: Table 19 field trial, treatment at the 2 leaf stage: rice damage; assay type: in vivo; conditions: 14 days after application
Description: as §3

Sagittaria pygmaea = assay: Table 22 field trial, treatment: 1-2 leaf stage: weed control; assay type: in vivo; conditions: 28 days after application
Description: Field trial: Treatment: 1-2 leaf stage, evaluation 28 days after the application.

Oryza sativa [9] = assay: Table 21 field trial, treatment at the 2 leaf stage: rice damage; assay type: in vivo
Description: (§4) Field trial: Treatment at the 2 leaf stage, evaluation 28 days after the application.

Cyperus serotinus [10] = assay: Table 21 field trial, treatment at the 2 leaf stage: weed control; assay type: in vivo; conditions: 28 days after application
Description: as §4

Oryza sativa [11] = assay: Table 20 field trial, treatment at the 4-6 leaf stage: rice damage; assay type: in vivo; conditions: 28 days after application
Description: (§5) Field trial: Treatment at the 4-6 leaf stage, evaluation 28 days after the application.

Ipomoea hederacea = assay: Table 20 field trial, treatment at the 4-6 leaf stage: weed control; assay type: in vivo; conditions: 28 days after application
Description: as §5

Cyperus iria = assay: Table 24 field trial, treatment by the pre-emergence method: weed control; assay type: in vivo; conditions: 400 g of ai/ha, 53 days after application
Description: (§6) Field trial: Treatment by the pre-emergence method, evaluation 53 days after the application.

Oryza sativa [12] = assay: Table 24 field trial, treatment by the pre-emergence method: rice damage; assay type: in vivo; conditions: in vivo
Description: as §6

Polygonum convolvulus = assay: Table 25 field trial, treatment at the 3 leaf stage: weed control; assay type: in vivo; conditions: 33 days after application
Description: (§7) Field trial: Treatment at the 3 leaf stage, evaluation 33 days after the application.

Oryza sativa [13] = assay: Table 25 field trial, treatment at the 3 leaf stage: rice damage; assay type: in vivo; conditions: 33 days after application
Description: as §7

Commelina benghalensis = assay: Table 26 field trial, treatment at the 3 leaf stage: weed control; assay type: in vivo; conditions: 33 days after application
Description: as §7

Oryza sativa [14] = assay: Table 26 field trial, treatment at the 3 leaf stage: rice damage; assay type: in vivo; conditions: 33 days after application
Description: as §7

Oryza sativa [15] = assay: Table 6 field trial, treatment at the 1-2 leaf stage: rice damage; assay type: in vivo; conditions: in vivo
Experimental: as §8

Echinochloa crusgalli [16] = assay: Table 6 field trial, treatment at the 1-2 leaf stage: weed control; assay type: in vivo; conditions: 28 days after application
Experimental: as §8

Oryza sativa [17] = conditions: in vivo
Experimental: as §1, with “The herbicidal compositions according to the invention also have good herbicidal post-emergence activity against a broad spectrum of economically important weed grasses and broad-leaved weeds.” left out

Echinochloa crusgalli [18] = assay: Table 11 greenhouse trial, treatment at the 1-2 leaf stage: weed control; assay type: in vivo; conditions: 20 days after application
Experimental: as §1, §2

Echinochloa crusgalli [19] = assay: Table 17 field trial, treatment at the 2 leaf stage: weed control; assay type: in vivo; conditions: 14 days after application
Description: as §3

Oryza sativa [20] = assay: Table 17 field trial, treatment at the 2 leaf stage: rice damage; assay type: in vivo; conditions: 14 days after application
Description: as §3

COCCOc1ccccc1S(=O)(=O)NC(=O)Nc1nc(OC)nc(OC)n1 [B60), N-[[(4,6-dimethoxy-1,3,5-triazin-2-yl)amino]carbonyl]-2-(2-methoxyethoxy)benzolsulfonamide]
CYPSE % control (Cyperus serotinus [1]; 15 g of ai/ha): 0% | CYPSE % control (Cyperus serotinus [1]; 30 g of ai/ha): 15% | CYPSE % control (Cyperus serotinus [1]; 60 g of ai/ha): 15% | ORYSW % damage (Oryza sativa [2]; 15 g of ai/ha): 0% | ORYSW % damage (Oryza sativa [2]; 30 g of ai/ha): 0% | ORYSW % damage (Oryza sativa [2]; 60 g of ai/ha): 5%

CCC(=O)Nc1ccc(Cl)c(Cl)c1 [B7), N-(3,4-dichlorophenyl)propanamide]
ECHCG % control (Echinochloa crusgalli [3]; 1250 g of ai/ha): 0% | ECHCG % control (Echinochloa crusgalli [3]; 2500 g of ai/ha): 0% | ECHCG % control (Echinochloa crusgalli [3]; 5000 g of ai/ha): 10% | ECHCG % control (Echinochloa crusgalli [4]; 1000 g of ai/ha): 79% | ECHCG % control (Echinochloa crusgalli [4]; 2000 g of ai/ha): 88% | ORYSW % damage (Oryza sativa [5]; 1000 g of ai/ha): 0% | ORYSW % damage (Oryza sativa [5]; 2000 g of ai/ha): 0% | ORYSW % damage (Oryza sativa [6]; 1250 g of ai/ha): 0% | ORYSW % damage (Oryza sativa [6]; 2500 g of ai/ha): 0% | ORYSW % damage (Oryza sativa [6]; 5000 g of ai/ha): 0% | MASCR % control (Marsilea crenata; 1000 g of ai/ha): 0% | MASCR % control (Marsilea crenata; 2000 g of ai/ha): 0%

CC(C)=C1OC(=O)N(c2cc(OC3CCCC3)c(Cl)cc2F)C1=O [B70), 3-(4-chloro-5-cyclopentyloxy-2-fluorophenyl)-5-iso-propylidene-1,3-oxazolidine-2,4-dione]
CYPSE % control (Cyperus serotinus [7]; 150 g of ai/ha): 50% | CYPSE % control (Cyperus serotinus [7]; 450 g of ai/ha): 65% | ORYSW % damage (Oryza sativa [8]; 150 g of ai/ha): 0% | ORYSW % damage (Oryza sativa [8]; 450 g of ai/ha): 0%

CN(C(=O)COc1nc2ccccc2s1)c1ccccc1 [B5), 2-(2-benzothiazolyloxy)-N-methyl-N-phenylacetamide]
SAGPY % control (Sagittaria pygmaea; 600 g of ai/ha): 0% | SAGPY % control (Sagittaria pygmaea; 1200 g of ai/ha): 0% | SAGPY % control (Sagittaria pygmaea; 2400 g of ai/ha): 0%

COc1cccc(N(C)C(=S)Oc2cccc(C(C)(C)C)c2)n1 [B12), O-[3-(1,1-dimethylethyl)phenyl](6-methoxy-2-pyridinyl)methylcarbamothioate]
ORYSW % damage (Oryza sativa [9]; 600 g of ai/ha, field trial, 28 days after application): 3% | CYPSE % control (Cyperus serotinus [10]; 600 g of ai/ha): 65%

CCN(CC)C(=O)SCc1ccc(Cl)cc1 [B11), S-[(4-chlorophenyl)methyl]diethylcarbamothioate]
ORYSW % damage (Oryza sativa [11]; 3300 g of ai/ha): 3% | IPOHE % control (Ipomoea hederacea; 3300 g of ai/ha): 43%

CC1(C)CON(Cc2ccccc2Cl)C1=O [B44), 2-[(2-chlorophenyl)methyl]-4,4-dimethyl-3-isoxazolidinone]
CYPIR % control (Cyperus iria): 30% | ORYSW % damage (Oryza sativa [12]): 0%

COc1c(Cl)ccc(Cl)c1C(=O)O [B31), 3,6-dichloro-o-anisic acid]
POLCO % control (Polygonum convolvulus; 240 g of ai/ha): 45% | POLCO % control (Polygonum convolvulus; 480 g of ai/ha): 80% | ORYSW % damage (Oryza sativa [13]; 240 g of ai/ha): 8% | ORYSW % damage (Oryza sativa [13]; 480 g of ai/ha): 10%

CCSC(=O)N1CCCCCC1 [B10), S-ethyl hexahydro-1H-azepin-1-carbothioate]
ORYSW % damage (Oryza sativa [11]; 4480 g of ai/ha): 0% | IPOHE % control (Ipomoea hederacea; 4480 g of ai/ha): 55%

CCC1(CC2(c3cccc(Cl)c3)CO2)C(=O)c2ccccc2C1=O (racemic) [B71), (RS)-2-[2-(3-chlorophenyl)-2,3-epoxypropyl]-2-ethyl-indane-1,3-dione]
ORYSW % damage (Oryza sativa [9]; in vivo): 4% | CYPSE % control (Cyperus serotinus [10]; 150 g of ai/ha): 55%

C#CCN(C)c1c(C#N)cnn1-c1nn2c(c1Cl)CCCC2 [B33b)]
CYPSE % control (Cyperus serotinus [7]; 100 g of ai/ha): 40% | CYPSE % control (Cyperus serotinus [7]; 200 g of ai/ha): 50% | CYPSE % control (Cyperus serotinus [7]; 400 g of ai/ha): 80% | ORYSW % damage (Oryza sativa [8]; 100 g of ai/ha): 6% | ORYSW % damage (Oryza sativa [8]; 200 g of ai/ha): 8% | ORYSW % damage (Oryza sativa [8]; 400 g of ai/ha): 12%

CSC(=O)c1c(C(F)F)nc(C(F)(F)F)c(C(=O)SC)c1CC(C)C [B24), S,S′-dimethyl-2-(difluoromethyl)-4-(2-methylpropyl)-6-(trifluoromethyl)-3,5-pyridindicarbothioate]
ORYSW % damage (Oryza sativa [9]; in vivo): 6% | CYPSE % control (Cyperus serotinus [10]; 60 g of ai/ha): 60%

COc1nc(C)nc(NC(=O)NS(=O)(=O)c2ccccc2C(=O)O)n1 [B57), 2-(4-methoxy-6-methyl-1,3,5-triazin-2-ylcarbamoyl-sulfamoyl)benzoic acid]
COMBE % control (Commelina benghalensis; 1 g of ai/ha): 20% | COMBE % control (Commelina benghalensis; 2 g of ai/ha): 68% | ORYSW % damage (Oryza sativa [14]; 1 g of ai/ha): 0% | ORYSW % damage (Oryza sativa [14]; 2 g of ai/ha): 0%

CCCCOCN(C(=O)CCl)c1c(CC)cccc1CC [B1), N-(butoxymethyl)-2-chloro-N-(2,6-diethylphenyl)acetamide]
ORYSW % damage (Oryza sativa [15]): 0% | ECHCG % control (Echinochloa crusgalli [16]; 300 g of ai/ha): 81% | ECHCG % control (Echinochloa crusgalli [16]; 600 g of ai/ha): 89%

O=C(O)COc1nc(Cl)c(Cl)cc1Cl [B40), [(3,5,6-trichloro-2-pyridinyl)oxy]acetic acid]
ORYSW % damage (Oryza sativa [11]; 420 g of ai/ha): 20% | IPOHE % control (Ipomoea hederacea; 420 g of ai/ha): 65%

COc1cc(OC)nc(NC(=O)NS(=O)(=O)c2c(Cl)nc3ccccn23)n1 [B61), 2-chloro-N-[[(4,6-dimethoxy-2-pyrimidinyl)amino]-carbonyl]imidazo[1,2-a]pyridine-3-sulfonamide]
ORYSW % damage (Oryza sativa [17]): 0% | ECHCG % control (Echinochloa crusgalli [18]; 8 g of ai/ha): 0% | ECHCG % control (Echinochloa crusgalli [18]; 15 g of ai/ha): 25% | ECHCG % control (Echinochloa crusgalli [18]; 30 g of ai/ha): 50% | ECHCG % control (Echinochloa crusgalli [18]; 60 g of ai/ha): 60%

CC(C)(SC(=O)N1CCCCC1)c1ccccc1 [B9), S-(1-methyl-1-phenylethyl)1-piperidincarbothioate]
ORYSW % damage (Oryza sativa [9]; 3000 g of ai/ha, field trial, 28 days after application): 5% | CYPSE % control (Cyperus serotinus [10]; 3000 g of ai/ha): 45%

CCOC(=O)C(Cl)Cc1cc(-n2nc(C)n(C(F)F)c2=O)c(F)cc1Cl (racemic) [B38), ethyl (RS)-2-chloro-3-[2-chloro-5-(4-difluoromethyl-4,5-dihydro-3-methyl-5-oxo-1H-1,2,4-,triazol-1-yl)-4-fluorophenyl]propionate]
ECHCG % control (Echinochloa crusgalli [19]; 7.5 g of ai/ha): 50% | ECHCG % control (Echinochloa crusgalli [19]; 15 g of ai/ha): 52% | ECHCG % control (Echinochloa crusgalli [19]; 30 g of ai/ha): 52% | ORYSW % damage (Oryza sativa [20]; 7.5 g of ai/ha): 0% | ORYSW % damage (Oryza sativa [20]; 15 g of ai/ha): 0% | ORYSW % damage (Oryza sativa [20]; 30 g of ai/ha): 0%
